Consider 15 compounds from patent US20180228780A1, “3-(1H-PYRROLO[2,3-C]PYRIDIN-2-YL)-1H-INDAZOLES AND THERAPEUTIC USES THEREOF” (Samumed, LLC, priority 2015, published 2018).

Type in all cases: cell-based
In test [1] the test system is Primary human fibroblasts derived from IPF patients (LL29 cells). Nature of the test: Inhibition of the fibrotic process: αSMA staining in TGF-β1-treated LL29 fibroblasts. The settings on record: Fibroblast; for EC50: 96 h, LL29 cells, TGF-β1 20 ng/mL, 4 days, % αSMA-positive cells; for inhibition at 10 µM: read-out: percent inhibition at 10 μM. The essentials: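 LL29 IPF-patient lung fibroblasts plated in F12 with 1% FBS, treated with TGF-β1 plus compound; TGF-β1/DMSO wells served as controls. After 4 days incubation, SYTOX green (1 μM final) added for 30 min at room temperature; αSMA staining used as fibrosis read-out.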

Test [2] concerns primary human mesenchymal stem cells (hMSCs). Nature of the test: Induction of chondrogenesis in hMSCs (nodule imaging, Rhodamine B / Nile Red). The settings on record: 6 days; for EC50: concentration required to induce 50% levels of chondrogenesis vs TGF-β3, read-out: Conc (nM) of 50% TGF-β3 activity; for Emax: relative to TGF-β3 (10 ng/mL) positive control, read-out: Max. Activity as % TGF-β3 activity. From the text:
Representative compounds were screened using primary human mesenchymal stem cells (hMSCs) to determine their ability to induce chondrogenesis (process by which cartilage is developed).
Primary human mesenchymal stem cells (hMSCs) were purchased from Lonza (Walkersville, Md.) and expanded in Mesenchymal Stem Cell Growth Media (Lonza). Cells between passage 3 and 6 were used for the experiments.
Area of nodules in each well was normalized to the average of 3 DMSO treated wells on the same plate using Excel (Microsoft Inc.). The normalized averages (fold change over DMSO) of 2 or 3 replicate wells for each compound concentration were calculated. Due to solubility limitations of some of the compounds, curve fitting was incomplete leading to inaccurate EC50 determinations.
Using TGF-β3 as a positive control, the concentration of representative compounds required to induce 50% levels of chondrogenesis is reported. In addition, the maximum activity of each compound and the respective dose that each compound reached maximum chondrogenesis activity is reported.

The test system of test [3] is IL-6 (THP-1 cells). Description: IL-6 inhibition in THP-1 monocytes (HTRF). The settings on record: Homo sapiens; for EC50: IL-6 inhibition, THP-1 cells, HTRF, 10-point dose-response starting from 10 μM; for inhibition at 10 µM: THP-1, read-out: percentage in parentheses printed under EC50 >10. The essentials:
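THP-1 cells serum-reduced (1% FBS, 24 h), plated 5000/well, stimulated with 500 ng/mL […] after 2 h and incubated a further 22 h at 37 °C. Secreted IL-6 quantified by HTRF (665/620 nm ratio), normalized to DMSO; EC50 from four-parameter fit, duplicates.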
In general terms: Time-resolved FRET reads energy transfer from a long-lived donor to a nearby acceptor.

The subject of test [4] is Wnt activity (Sp5-Luc reporter, SW480 colon carcinoma cells). Description: Screening assay for Wnt activity: Sp5-Luc reporter gene assay in SW480 cells. To be noted: Homo sapiens; for EC50: SW480 Sp5-Luc reporter, overnight incubation; for inhibition at 10 µM: SW480, read-out: percent inhibition at 10 μM. The essentials: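 SW480 colon carcinoma cells stably carrying Sp5 promoter (eight TCF/LEF sites)-driven firefly luciferase, plated at 4,000 cells/well in 1% FBS medium and incubated overnight at 37° C. Luminescence normalised to DMSO-only cells; EC50 from four-parameter variable-slope nonlinear regression.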

The subject of test [5] is SW480 colon cancer cells. Description: Cell viability assay (CellTiter-Blue) in SW480 colon cancer cells. The settings on record: Homo sapiens; for EC50: 96 h, SW480 cell viability, four days incubation; for inhibition at 10 µM: SW480, read-out: percent inhibition at 10 μM. The essentials:
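Fluorescence from resazurin reduced to resorufin by metabolically active cells was the read-out, taken after ~3 h with CellTiter-Blue.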
On the technique in general: Resazurin is reduced to fluorescent resorufin, in cell work by metabolically active cells.

SMILES strings stand for the structures.

For the compound `COc1cncc(-c2ccc3[nH]nc(-c4cc5c(-c6ccoc6)cncc5[nH]4)c3c2)c1` [Compound 692, 3-(4-(Furan-3-yl)-1H-pyrrolo[2,3-c]pyridin-2-yl)-5-(5-methoxypyridin-3-yl)-1H-indazole], the EC50 was 728 nM in test [1]; 10 nM in test [2]; 8270 nM in test [3]; 2200 nM in test [4]; 1100 nM in test [5]. In addition, the Emax in test [2] amounted to 170%.

As to `O=C(Nc1cncc(-c2ccc3[nH]nc(-c4cc5c(-c6cccs6)cncc5[nH]4)c3c2)c1)C1CC1` [Compound 356, N-(5-(3-(4-(Thiophen-2-yl)-1H-pyrrolo[2,3-c]pyridin-2-yl)-1H-indazol-5-yl)pyridin-3-yl)cyclopropanecarboxamide], the EC50 in test [1] was 83 nM; in test [2], 10 nM; in test [3], 14 nM; in test [4] it was 86 nM; in test [5], 117 nM. Further, the Emax in test [2] is 156%.

For the compound `CN1CCN(c2cncc3[nH]c(-c4n[nH]c5ccc(-c6cncc(NC(=O)CC7CCNCC7)c6)cc45)cc23)CC1` [Compound 641, N-(5-(3-(4-(4-Methylpiperazin-1-yl)-1H-pyrrolo[2,3-c]pyridin-2-yl)-1H-indazol-5-yl)pyridin-3-yl)-2-(piperidin-4-yl)acetamide], the EC50 in test [1] was 6440 nM; in test [2] it was 100 nM; in test [3], over 10000 nM; in test [4], over 10000 nM; in test [5], over 10000 nM. Also, the Emax in test [2] is 289%. Moreover, the inhibition at 10 µM in test [3] was found to be 43.7%; in test [4], 6.7%; in test [5] it was 11.9%.

On to `CCNCc1cncc(-c2ccc3[nH]nc(-c4cc5c(-c6cc(F)cc(CNS(C)(=O)=O)c6)cncc5[nH]4)c3c2)c1` [Compound 482, N-(3-(2-(5-(5-((Ethylamino)methyl)pyridin-3-yl)-1H-indazol-3-yl)-1H-pyrrolo[2,3-c]pyridin-4-yl)-5-fluorobenzyl)methanesulfonamide], for which the EC50 was over 10000 nM in test [1]; 100 nM in test [2]; 187 nM in test [3]; over 10000 nM in test [4]; over 10000 nM in test [5]. The inhibition at 10 µM in test [1] was 17.1%; in test [4], 29.8%; in test [5], 24.3%. In test [2], the Emax was 58%.

Take `COc1cncc(-c2ccc3[nH]nc(-c4cc5c(-c6ccsc6)cncc5[nH]4)c3c2)c1` [Compound 676, 5-(5-Methoxypyridin-3-yl)-3-(4-(thiophen-3-yl)-1H-pyrrolo[2,3-c]pyridin-2-yl)-1H-indazole]: the EC50 in test [1] is 434 nM; in test [3], 2580 nM; in test [4], 956 nM; in test [5], 510 nM. In test [2], the Emax turned out to be 40%.

Consider `Fc1cccc(-c2cncc3[nH]c(-c4n[nH]c5ccc(C6CCNCC6)cc45)cc23)c1` [Compound 505, 3-(4-(3-Fluorophenyl)-1H-pyrrolo[2,3-c]pyridin-2-yl)-5-(piperidin-4-yl)-1H-indazole], for which the EC50 in test [1] worked out at 2500 nM; in test [2] it was 2700 nM; in test [3] it was 5430 nM; in test [4], 3230 nM; in test [5], 4150 nM. For the same compound, the Emax in test [2] came out at 51%.

As to `O=C(Nc1cncc(-c2ccc3[nH]nc(-c4cc5c(-c6cccnc6)cncc5[nH]4)c3c2)c1)C1CCCC1` [Compound 106, N-(5-(3-(4-(Pyridin-3-yl)-1H-pyrrolo[2,3-c]pyridin-2-yl)-1H-indazol-5-yl)pyridin-3-yl)cyclopentanecarboxamide], the EC50 in test [1] worked out at 2320 nM; in test [3], 209 nM; in test [4], 1400 nM; in test [5] it was 2030 nM. Moreover, the Emax in test [2] turned out to be 45%.

Turning to `Fc1cccc(-c2cncc3[nH]c(-c4n[nH]c5ccc(-c6ccccn6)cc45)cc23)c1` [Compound 28, 3-(4-(3-Fluorophenyl)-1H-pyrrolo[2,3-c]pyridin-2-yl)-5-(pyridin-2-yl)-1H-indazole], the EC50 in test [1] turned out to be 460 nM; in test [3], 2420 nM; in test [4] it was 670 nM; in test [5], 355 nM. Besides, in test [2], the Emax was 26%.

`c1cc(-c2cncc3[nH]c(-c4n[nH]c5ccc(-c6cncc(CN7CCCC7)c6)cc45)cc23)ccn1` [Compound 126, 3-(4-(Pyridin-4-yl)-1H-pyrrolo[2,3-c]pyridin-2-yl)-5-(5-(pyrrolidin-1-ylmethyl)pyridin-3-yl)-1H-indazole]: the EC50 in test [1] stood at 1490 nM; in test [3], 2160 nM; in test [4] it was 3390 nM; in test [5], 2310 nM. Also, the Emax in test [2] is 48%.

As to `CN1CCN(c2cncc3[nH]c(-c4n[nH]c5ccc(-c6cncc(N)c6)cc45)cc23)CC1` [Compound 227, 5-(3-(4-(4-Methylpiperazin-1-yl)-1H-pyrrolo[2,3-c]pyridin-2-yl)-1H-indazol-5-yl)pyridin-3-amine], the EC50 in test [1] is 5310 nM; in test [2], 30 nM; in test [3] it was over 10000 nM; in test [4] it was 8250 nM; in test [5] it was over 10000 nM. In test [2], the Emax was found to be 51%. The figures for the inhibition at 10 µM in test [3] and in test [5] were 48.5% and 37.2%, respectively.

As for `CCC(=O)Nc1cncc(-c2ccc3[nH]nc(-c4cc5c(-c6cc(F)cc(CNS(C)(=O)=O)c6)cncc5[nH]4)c3c2)c1` [Compound 477, N-(5-(3-(4-(3-Fluoro-5-(methylsulfonamidomethyl)phenyl)-1H-pyrrolo[2,3-c]pyridin-2-yl)-1H-indazol-5-yl)pyridin-3-yl)propionamide], the EC50 came out at 1640 nM in test [1], 56 nM in test [3], 244 nM in test [4] and 901 nM in test [5]. For the same compound, the Emax in test [2] was 29%.

Take `CC(C)C(=O)Nc1cncc(-c2ccc3[nH]nc(-c4cc5c(-c6cccnc6)cncc5[nH]4)c3c2)c1` [Compound 93, N-(5-(3-(4-(Pyridin-3-yl)-1H-pyrrolo[2,3-c]pyridin-2-yl)-1H-indazol-5-yl)pyridin-3-yl)isobutyramide]: the EC50 in test [1] stood at 175 nM; in test [3] it was 247 nM; in test [4], 260 nM; in test [5] it was 584 nM. In addition, in test [2], the Emax was 34%.

On to `CN(C)Cc1cncc(-c2cc(F)c3[nH]nc(-c4cc5c(-c6cccc(F)c6)cncc5[nH]4)c3c2)c1` [Compound 991, 1-(5-(7-Fluoro-3-(4-(3-fluorophenyl)-1H-pyrrolo[2,3-c]pyridin-2-yl)-1H-indazol-5-yl)pyridin-3-yl)-N,N-dimethylmethanamine], for which the EC50 was 1230 nM in test [1], 3710 nM in test [3], 3710 nM in test [4] and 1040 nM in test [5]. Further, in test [2], the Emax is 38%.

With `Cn1cc(-c2ccc3[nH]nc(-c4cc5c(-c6cccnc6)cncc5[nH]4)c3c2)cn1` [Compound 556, 5-(1-Methyl-1H-pyrazol-4-yl)-3-(4-(pyridin-3-yl)-1H-pyrrolo[2,3-c]pyridin-2-yl)-1H-indazole], the EC50 in test [1] is over 10000 nM; in test [2], 30 nM; in test [3], over 10000 nM; in test [4], 250 nM; in test [5] it was 506 nM. The inhibition at 10 µM in test [1] is 0%; in test [3] it was 44.3%. Also, the Emax in test [2] turned out to be 65%.

Consider `CC(C)CC(=O)Nc1cncc(-c2ccc3[nH]nc(-c4cc5c(-c6ccncc6)cncc5[nH]4)c3c2)c1` [Compound 114], for which the EC50 in test [1] is over 10000 nM; in test [2], 30 nM; in test [3] it was over 10000 nM; in test [4] it was 875 nM; in test [5], over 10000 nM. Also, the inhibition at 10 µM in test [1] turned out to be 47%; in test [3], 15.9%; in test [5], 24.8%. In test [2], the Emax was 70%.
